{"source": "patent US7871635B2", "about": "“Use of compound that inactivates protein kinase A in a composition containing a cosmetically acceptable medium for lightening the skin” (Societe d'Exploitation de Produits pour les Industries …, priority 2002, dated 2011)", "key": {"tyrosinase": {"tested_on": "tyrosinase", "assay": "Study of phosphorylated tyrosinase activity (L-tyrosine to dopaquinone, 490 nm)", "type": "biochemical, fungi", "conditions": "tyrosinase 66.66 IU/ml, tyrosine 0.2 mM, 10 minutes at 37° C.", "description": "The tyrosinase used is a commercial product extracted from fungi. […] Sodium hydroxide has no effect on the parameter studied. […] Control cultures are incubated, in the absence of product, and in the presence of tyrosinase and L-tyrosine. Each test is performed in triplicate. After incubation for 10 minutes, the amount of dopaquinone […] formed is measured using a spectrophotometer at 490 nm. The results given in the table below are the means of the three tests performed for each of the products. They are expressed as IU/l of tyrosinase activity and as a percentage of inhibition of the enzymatic activity relative to the control."}, "Protein kinase A": {"tested_on": "Protein kinase A", "assay": "Study of protein kinase A activity (phosphorylation of histone H1)", "type": "biochemical, bovine", "conditions": "1 mg/ml; for Enzymatic activity relative to the control (protein kinase A): cAMP 3 μM, histone H1 200 μg/ml, 20 minutes at 30° C.", "description": "The influence of N-undecylenoylphenylalanine, kojic acid and arbutin on the phosphorylation of […] with protein kinase A (PK A) was compared. Protein kinase A is extracted from bovine brains via the method described in: “[…]., Sano M., Hayashi K., Inoue T., Naito […]. Biol. Chem., 265, 1990, 5267-5272”. […] Sodium hydroxide has no effect on the parameter studied. […] Control cultures are incubated, in the absence of product, and in the presence of radioactive ATP and histone H1. Each test is performed in triplicate. […] The results given in the table below are the means of the three tests performed for each of the products. They are expressed as a percentage of enzymatic activity relative to the control group and as a percentage of inhibition."}, "[1]": {"tested_on": "B16/F1 melanocyte cultures", "assay": "Intracellular protein content (cytotoxicity) in B16/F1 melanocyte cultures", "type": "cell-based, mouse", "description": "Mouse melanocytes of the B16/F1 line are inoculated in 96-well culture plates at a density of 1500 cells/well. […] The cells are used at 60% of confluence, i.e. 4 days after inoculation. The MCM medium has the following composition: […] N-Undecylenoylphenylalanine is diluted to 4 mg/ml in decinormal aqueous sodium hydroxide solution. It is tested at 40 μg/ml in the MCM medium. Sodium hydroxide has no effect on the parameters analyzed. […] Given its toxicity, it is not tested at 40 μg/ml. […] Control cultures are incubated, in the absence of product, in the MCM medium. These control cultures are prepared on each culture plate. Each test is performed six times. This assay allows the cytotoxicity of the test products to be evaluated. It is performed in cell lysates prepared as described in the preceding paragraph. The protein assay is performed according to the Coomassie blue method described by: “Bradford M.; Anal. Biochem., 72, 1976, 248-254”. The measurement is performed by spectrophotometry at 640 nm. A bovine serum albumin (BSA) calibration range is prepared in parallel. The results are expressed as mg/ml of proteins and as a percentage of inhibition relative to the control group."}, "Adenylate cyclase": {"tested_on": "Adenylate cyclase", "assay": "Study of adenylate cyclase activation (ATP to cAMP, radioimmunological assay)", "type": "biochemical, rat", "conditions": "1 mg/ml; for Enzymatic activity relative to the control (adenylate cyclase): forskolin 10 μM, ATP 0.5 mM, 30 minutes at 30° C.", "description": "The influence of N-undecylenoylphenylalanine, kojic acid and arbutin on the conversion of ATP into cAMP was compared via a radioimmunological assay.\nAdenylate cyclase, which converts ATP into cAMP, is extracted from rat brains via the method described in “Salamon Y., Londos C. and Rodbell M.; Anal. Biochem., 58, 1974, 541-548”; it is then activated with 10 μM of forskolin.\nThey are each tested separately at a concentration of 1 mg/ml. Sodium hydroxide has no effect on the parameter studied.\nThe activated enzyme is incubated, in the presence or absence of these products, and in the presence of 0.5 mM of ATP, for 30 minutes at 30° C.\nControl cultures are incubated, in the absence of product, and in the presence of ATP. Each test is performed in triplicate.\nAfter incubation for 30 minutes, the amount of cAMP produced is evaluated via a radioimmunological assay performed using a commercial kit; the radioactivity is measured with a scintillation counter (Topcount, Packard), a small radioactivity count reflecting small activation of adenylate cyclase.\nThe results given in the table below are the means of the three tests performed for each of the products. They are expressed as a percentage of enzymatic activity relative to the control group and as a percentage of inhibition."}, "MC1R receptors": {"molecular_target": "T1, MC1R receptors (Mus musculus, UniProt Q01727)", "T1 construct": "isolated from cell membranes of mouse melanocytes of the B16/F1 line; endogenous in cells; host or cells: B16/F1 mouse melanocyte (melanoma) cell membranes", "T1 sequence (Q01727 whole entry)": "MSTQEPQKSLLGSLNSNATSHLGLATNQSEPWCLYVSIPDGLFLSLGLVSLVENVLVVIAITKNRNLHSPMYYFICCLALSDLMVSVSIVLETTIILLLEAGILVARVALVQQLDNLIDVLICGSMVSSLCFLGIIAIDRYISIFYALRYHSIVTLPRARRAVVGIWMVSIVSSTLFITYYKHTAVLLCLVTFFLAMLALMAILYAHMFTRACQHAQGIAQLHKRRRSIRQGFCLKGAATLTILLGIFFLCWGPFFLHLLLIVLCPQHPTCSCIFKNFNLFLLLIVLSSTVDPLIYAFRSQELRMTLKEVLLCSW", "assay": "Affinity study on MC1R receptors ([125I]NDP-α-MSH binding)", "conditions": "for Activity relative to the control (percentage of specific binding): [125I]NDP-α-MSH 0.05 nM, 90 minutes at 22° C.; for inhibition at 100 µg/mL / inhibition at 1000 µg/mL: read-out: Inhibition of specific binding by the test products; for displacement of the specific binding of the ligand [125I]NDP-α-MSH: at the test concentrations (0.1 mg/ml and 1 mg/ml)", "description": "MC1R receptors are isolated from cell membranes of mouse melanocytes of the B16/F1 line via the method described in: Siegrist W., Oestreicher M., Stutz M., Girard J. and […]., 8, 1988, 323-343”. […] Sodium hydroxide has no effect on the parameter studied. The MC1R receptors are incubated, in the presence or absence of these products, with an iodine-125 labeled radioactive ligand, the […]-α-melanocyte […] hormone [^125I]NDP-α-MSH at a concentration of 0.05 nM, for 90 minutes at 22° C. Control cultures are incubated, in the absence of product, and in the presence of the radioactive ligand. Each test is performed in triplicate. After incubation for 90 minutes, the cell membranes are rapidly filtered and the filters are washed several times with cold buffer. The amount of radioactive ligand bound to the MC1R receptors is measured using a scintillation counter (Topcount, Packard). The results given in the table below are the means of the three tests performed for each of the products. They are expressed as a percentage of specific binding relative to the control group and as a percentage of inhibition of this binding."}, "[2]": {"conditions": "at 40 μg/ml, 72 hours, control 0.45 ± 0.01"}, "[3]": {"conditions": "listed as N-undecylenoylphenylalanine"}}, "data": [{"smiles": "OC[C@H]1O[C@@H](Oc2ccc(O)cc2)[C@H](O)[C@@H](O)[C@@H]1O", "note": "[Arbutin, arbutin]", "values": [{"measurement": "Percentage of inhibition of tyrosinase activity with the test products relative to the control", "setting": "tyrosinase; at 0.1 mg/ml", "value": 73, "unit": "%"}, {"measurement": "Percentage of inhibition of tyrosinase activity with the test products relative to the control", "setting": "tyrosinase; at 1 mg/ml", "value": 80, "unit": "%"}, {"measurement": "Inhibition of protein kinase A activity", "setting": "Protein kinase A", "value": 9.1, "unit": "%"}, {"measurement": "Enzymatic activity relative to the control (protein kinase A)", "setting": "Protein kinase A", "value": "90.9 ± 8.4", "unit": "%"}, {"measurement": "Total proteins", "setting": "[1]; [2]", "value": "0.43 ± 0.01", "unit": "mg/mL"}, {"measurement": "Inhibition of adenylate cyclase activity", "setting": "Adenylate cyclase", "value": 0, "unit": "%"}, {"measurement": "Enzymatic activity relative to the control (adenylate cyclase)", "setting": "Adenylate cyclase", "value": "109.7 ± 4.6", "unit": "%"}, {"measurement": "Inhibition of adenylate cyclase activity", "setting": "Adenylate cyclase; listed as arbutin", "value": "no effect"}, {"measurement": "Activity relative to the control (percentage of specific binding)", "setting": "MC1R receptors; at 0.1 mg/ml", "value": "100.80 ± 0.55", "unit": "%"}, {"measurement": "inhibition at 100 µg/mL", "setting": "MC1R receptors; at 0.1 mg/ml", "value": 0, "unit": "%"}, {"measurement": "Activity relative to the control (percentage of specific binding)", "setting": "MC1R receptors; at 1 mg/ml", "value": "96.30 ± 4.16", "unit": "%"}, {"measurement": "inhibition at 1000 µg/mL", "setting": "MC1R receptors; at 1 mg/ml", "value": 3.7, "unit": "%"}, {"measurement": "displacement of the specific binding of the ligand [125I]NDP-α-MSH", "setting": "MC1R receptors", "value": "neither arbutin nor kojic acid, which are the reference depigmenting compounds, displaces the specific binding"}]}, {"smiles": "Oc1ccc(O)cc1", "note": "[Hydroquinone, hydroquinone]", "values": [{"measurement": "Percentage of inhibition of tyrosinase activity with the test products relative to the control", "setting": "tyrosinase; at 0.1 mg/ml", "value": 78, "unit": "%"}, {"measurement": "Percentage of inhibition of tyrosinase activity with the test products relative to the control", "setting": "tyrosinase; at 1 mg/ml", "value": 80, "unit": "%"}, {"measurement": "Inhibition of protein quantity", "setting": "[1]; mouse, 72 h, 5 μg/ml", "value": 38, "unit": "%"}, {"measurement": "Total proteins", "setting": "[1]; mouse, 72 h, 5 μg/ml", "value": "0.28 ± 0.01", "unit": "mg/mL"}]}, {"smiles": "O=c1cc(CO)occ1O", "note": "[Kojic acid, kojic acid]", "values": [{"measurement": "Inhibition of protein kinase A activity", "setting": "Protein kinase A", "value": 0, "unit": "%"}, {"measurement": "Total proteins", "setting": "[1]; mouse, 72 h, 40 μg/ml", "value": "0.41 ± 0.02", "unit": "mg/mL"}, {"measurement": "Inhibition of adenylate cyclase activity", "setting": "Adenylate cyclase", "value": 55, "unit": "%"}, {"measurement": "Inhibition of adenylate cyclase activity", "setting": "Adenylate cyclase; listed as kojic acid", "value": "moderate effect"}, {"measurement": "inhibition at 100 µg/mL", "setting": "MC1R receptors; at 0.1 mg/ml", "value": 0, "unit": "%"}, {"measurement": "inhibition at 1000 µg/mL", "setting": "MC1R receptors; at 1 mg/ml", "value": 0, "unit": "%"}, {"measurement": "displacement of the specific binding of the ligand [125I]NDP-α-MSH", "setting": "MC1R receptors", "value": "neither arbutin nor kojic acid, which are the reference depigmenting compounds, displaces the specific binding"}]}, {"smiles": "C=CCCCCCCCCC(=O)NC(Cc1ccccc1)C(=O)O", "note": "(stereo not shown) [N-Undecylenoylphenylalanine, N-(ω-undecylenoyl)phenylalanine]", "values": [{"measurement": "Percentage of inhibition of tyrosinase activity with the test products relative to the control", "setting": "tyrosinase; at 0.1 mg/ml", "value": 80, "unit": "%"}, {"measurement": "Percentage of inhibition of tyrosinase activity with the test products relative to the control", "setting": "tyrosinase; at 1 mg/ml", "value": 100, "unit": "%"}, {"measurement": "Inhibition of protein kinase A activity", "setting": "Protein kinase A", "value": 100, "unit": "%"}, {"measurement": "Enzymatic activity relative to the control (protein kinase A)", "setting": "Protein kinase A", "value": "−0.4 ± 0.3", "unit": "%"}, {"measurement": "Inhibition of protein kinase A activity", "setting": "Protein kinase A; [3]", "value": "totally inhibits"}, {"measurement": "Inhibition of protein quantity", "setting": "[1]; at 40 μg/ml, 72 hours", "value": 17, "unit": "%"}, {"measurement": "Total proteins", "setting": "[1]; [2]", "value": "0.38 ± 0.01", "unit": "mg/mL"}, {"measurement": "Inhibition of adenylate cyclase activity", "setting": "Adenylate cyclase", "value": 100, "unit": "%"}, {"measurement": "Enzymatic activity relative to the control (adenylate cyclase)", "setting": "Adenylate cyclase", "value": "−16.0 ± 0.5", "unit": "%"}, {"measurement": "Inhibition of adenylate cyclase activity", "setting": "Adenylate cyclase; [3]", "value": "total inactivation"}, {"measurement": "Inhibition of specific binding by the test products", "setting": "MC1R receptors; at 0.1 mg/ml", "value": 42.3, "unit": "%"}, {"measurement": "Activity relative to the control (percentage of specific binding)", "setting": "MC1R receptors; at 0.1 mg/ml", "value": "57.70 ± 2.38", "unit": "%"}, {"measurement": "inhibition at 100 µg/mL", "setting": "MC1R receptors; at 0.1 mg/ml", "value": 42, "unit": "%"}, {"measurement": "Inhibition of specific binding by the test products", "setting": "MC1R receptors; at 1 mg/ml", "value": 95.8, "unit": "%"}, {"measurement": "Activity relative to the control (percentage of specific binding)", "setting": "MC1R receptors; at 1 mg/ml", "value": "4.20 ± 0.86", "unit": "%"}, {"measurement": "inhibition at 1000 µg/mL", "setting": "MC1R receptors; at 1 mg/ml", "value": 96, "unit": "%"}]}]}
